Molecules are shown by their SMILES. Where two headings read alike, the source gives them in different places. Where only a bound is given, the exact number is not on record here.

A word on the Ki: it is a measure of affinity in units of concentration, obtained from inhibition or displacement. The term melting point denotes the temperature of the solid-liquid transition.

The target of one data set is T1, hCA IX (Homo sapiens, UniProt Q16790).
T1 construct: made in house
The data set is described as follows: stopped flow CO2 hydrase assay, hCA IX. In kind it is biochemical. The conditions noted are these: recombinant enzyme, 15 min incubation, mean from three assays, errors ± 5–10%. On the procedure:
(§1) An applied photophysics stopped-flow instrument has been used for assaying the CA catalysed CO2 hydration activity.[32]
(§2) Phenol red (at a concentration of 0.2 mM) was used as indicator, working at the absorbance maximum of 557 nm, with 20 mM Hepes (pH 7.5), and 20 mM Na2SO4 (for maintaining constant the ionic strength), following the initial rates of the CA-catalysed CO2 hydration reaction for a period of 10 − 100 s. The CO2 concentrations ranged from 1.7 to 17 mM for the determination of the kinetic parameters and inhibition constants. […] The uncatalysed rates were determined in the same manner and subtracted from the total observed rates. Stock solutions of inhibitor (0.1 mM) were prepared in distilled – deionised water, and dilutions up to 0.01 nM were done thereafter with the assay buffer. Inhibitor and enzyme solutions were preincubated together for 15 min at room temperature prior to assay in order to allow for the formation of the E – I complex. […] The inhibition constants were obtained by nonlinear least-squares methods using PRISM 3 and the Cheng – Prusoff equation, as reported earlier[15]^,[33–37]^, and represent the mean from at least three different determinations. All CA isoforms were recombinant ones obtained in-house as reported earlier[12]^,[18]^,[38–45].

Another data set has as its target T2, hCA II (Homo sapiens, UniProt P00918).
T2 construct: made in house
The data set is described as follows: stopped flow CO2 hydrase assay, hCA II. The class given is biochemical. The conditions noted are these: 15 min incubation. On the procedure:
as §1, §2

The target of the next data set is T3, hCA I (Homo sapiens, UniProt P00915).
T3 construct: made in house
T3 sequence (P00915 whole entry): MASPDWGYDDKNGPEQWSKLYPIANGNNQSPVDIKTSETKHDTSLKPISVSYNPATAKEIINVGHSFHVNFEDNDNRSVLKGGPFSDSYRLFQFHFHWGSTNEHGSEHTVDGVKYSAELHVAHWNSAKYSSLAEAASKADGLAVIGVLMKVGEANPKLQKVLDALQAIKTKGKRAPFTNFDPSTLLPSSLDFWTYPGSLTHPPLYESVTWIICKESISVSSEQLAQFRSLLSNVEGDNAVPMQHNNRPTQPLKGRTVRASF
Description: stopped flow CO2 hydrase assay, hCA I. The class given is biochemical. The conditions noted are these: 15 min incubation; for Ki: recombinant enzyme, mean from three assays, errors ± 5–10%. On the procedure:
as §1, §2

In the next data set the target is T4, hCA XII (Homo sapiens, UniProt O43570).
T4 construct: made in house
T4 sequence (O43570 25-354): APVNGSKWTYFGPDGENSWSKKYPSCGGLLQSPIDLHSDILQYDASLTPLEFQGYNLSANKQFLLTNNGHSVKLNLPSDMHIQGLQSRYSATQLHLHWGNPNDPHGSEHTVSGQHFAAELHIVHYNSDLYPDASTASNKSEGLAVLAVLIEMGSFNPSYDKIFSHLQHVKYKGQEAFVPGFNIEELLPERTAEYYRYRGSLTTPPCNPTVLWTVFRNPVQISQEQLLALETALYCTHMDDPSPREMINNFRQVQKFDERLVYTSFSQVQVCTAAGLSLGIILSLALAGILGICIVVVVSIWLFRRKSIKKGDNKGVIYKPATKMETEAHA
The data set is described as follows: stopped flow CO2 hydrase assay, hCA XII. In kind it is biochemical. The conditions noted are these: 15 min incubation; for Ki: recombinant enzyme, mean from three assays, errors ± 5–10%. The procedure:
as §1, §2

The mark [1] stands for this setting: recombinant enzyme, mean from three assays, errors ± 5–10%, read-out: KI (nM) hCA II.

Consider `Cc1ccc2c(c1)C=NS(=O)(=O)O2` [2a, 6-Methyl-1,2,3-benzoxathiazine 2,2-dioxide], for which the Ki on hCA IX is 72 nM; on hCA II (setting [1]), 116 nM; on hCA I it was 25700 nM; on hCA XII, 98.2 nM.

As to `COc1ccc2c(c1)C=NS(=O)(=O)O2` [2b, 6-Methoxy-1,2,3-benzoxathiazine 2,2-dioxide], the Ki is 62.8 nM at hCA IX, 168 nM on hCA II (setting [1]), > 100000 nM on hCA I and 75.1 nM on hCA XII. The “inhibition of hCA I in words” value at hCA I is on record as “did not inhibit”.

In the case of `O=S1(=O)N=Cc2cc(F)ccc2O1` [2c, 6-Fluoro-1,2,3-benzoxathiazine 2,2-dioxide], the Ki at hCA IX was 58.3 nM; on hCA II (setting [1]) it was 71.8 nM; at hCA I, 3320 nM; at hCA XII, 121 nM.

Turning to `O=S1(=O)N=Cc2cc(Br)ccc2O1` [2d, 6-Bromo-1,2,3-benzoxathiazine 2,2-dioxide], the inhibition constant (Ki) at hCA IX is 27.4 nM; on hCA II (rounded, read-out: Ki hCA II), 8300 nM; at hCA II (setting [1]), 8320 nM; on hCA I, > 100000 nM; on hCA XII it was 186 nM. On hCA I, the “inhibition of hCA I in words” value is reported as “did not inhibit”.

As to `Cc1ccc2c(c1)OS(=O)(=O)N=C2` [2e, 7-Methyl-1,2,3-benzoxathiazine 2,2-dioxide], the inhibition constant (Ki) amounted to 53.1 nM on hCA IX, 78.9 nM at hCA II (setting [1]), 657 nM on hCA I and 58 nM on hCA XII.

For `COc1ccc2c(c1)OS(=O)(=O)N=C2` [2f, 7-Methoxy-1,2,3-benzoxathiazine 2,2-dioxide], the Ki at hCA IX is 39.7 nM; at hCA II (setting [1]), 55.2 nM; at hCA I it was 987 nM; on hCA XII it was 83.1 nM.

As for `O=S1(=O)N=Cc2ccc(F)cc2O1` [2g, 7-Fluoro-1,2,3-benzoxathiazine 2,2-dioxide], the Ki at hCA IX came to 55.4 nM; at hCA II (setting [1]), 86.7 nM; at hCA I, 448 nM; on hCA XII, 112 nM.

In the case of `O=S1(=O)N=Cc2ccc(Br)cc2O1` [2h, 7-Bromo-1,2,3-benzoxathiazine 2,2-dioxide], the Ki on hCA IX stood at 22.3 nM; at hCA II (setting [1]), 45.1 nM; on hCA I, 46500 nM; at hCA XII, 70.1 nM.

Take `COc1cccc2c1OS(=O)(=O)N=C2` [2i, 8-Methoxy-1,2,3-benzoxathiazine 2,2-dioxide]: the Ki on hCA IX came to 73.6 nM; at hCA II (setting [1]), 39 nM; at hCA I it was 1520 nM; at hCA XII, 63.4 nM.

On to `O=S1(=O)N=Cc2cccc(F)c2O1` [2j, 8-Fluoro-1,2,3-benzoxathiazine 2,2-dioxide], for which the Ki was determined as 65.9 nM at hCA IX, 89.2 nM on hCA II (setting [1]), 466 nM at hCA I and 34.7 nM at hCA XII.

On to `O=S1(=O)N=Cc2cccc(Br)c2O1` [2k, 8-Bromo-1,2,3-benzoxathiazine 2,2-dioxide], for which the Ki was 41.8 nM on hCA IX, 113 nM at hCA II (setting [1]), 788 nM on hCA I and 86.3 nM at hCA XII.

Consider `O=S1(=O)N=Cc2c(cccc2-c2ccccc2)O1` [5a, 5-Phenyl-1,2,3-benzoxathiazine 2,2-dioxide], for which the melting point was 156 to 157 °C. For the same compound, the inhibitory constant (Ki) on hCA IX amounted to 5250 nM. Further, the Ki on hCA II (setting [1]) is 9870 nM. Besides, at hCA I, the Ki was > 100000 nM. On hCA XII, the Ki was found to be 12600 nM.

For `O=S1(=O)N=Cc2c(cccc2-c2ccc(F)cc2)O1` [5b, 5-(4-Fluorophenyl)-1,2,3-benzoxathiazine 2,2-dioxide], the Ki at hCA IX is 4140 nM; at hCA II (setting [1]), 14800 nM; at hCA I, > 100000 nM; on hCA XII it was 7460 nM.

The compound `COc1ccc(-c2cccc3c2C=NS(=O)(=O)O3)cc1` [5c, 5–(4-Methoxyphenyl)-1,2,3-benzoxathiazine 2,2-dioxide] came in with a melting point of 177 to 178 °C. The Ki at hCA IX was 10900 nM. For the same compound, the Ki on hCA II (setting [1]) was determined as 36900 nM. For the same compound, the inhibition constant Ki at hCA I is > 100000 nM. Moreover, the Ki at hCA XII came out at 18000 nM.

Turning to `O=S1(=O)N=Cc2c(cccc2-c2ccc(Cl)c(Cl)c2)O1` [5d, 5-(3,4-Dichlorophenyl)-1,2,3-benzoxathiazine 2,2-dioxide], the melting point fell in the range of 230 to 231 °C. Besides, the Ki on hCA IX was > 100000 nM. Besides, the “inhibition of hCA II in words” value against hCA II is “not inhibited”. Moreover, the Ki on hCA II (setting [1]) was > 100000 nM. The Ki at hCA I is > 100000 nM. Besides, the Ki at hCA XII came to 45300 nM.

Turning to `CCOC(=O)c1ccc(-c2cccc3c2C=NS(=O)(=O)O3)cc1` [5e, Ethyl 4-(2,2-dioxido-1,2,3-benzoxathiazin-5-yl)benzoate], the Ki at hCA IX, on hCA II (setting [1]), on hCA I and on hCA XII was > 100000 nM in each case. Further, the “inhibition of hCA II in words” value at hCA II was “not inhibited”. The “inhibition of hCA XII in words” value against hCA XII is recorded as “did not exhibit any inhibitory properties”.

Compound `O=S1(=O)N=Cc2ccc(-c3ccccc3)cc2O1` [5f, 7-Phenyl-1,2,3-benzoxathiazine 2,2-dioxide] showed a melting point of 171 to 172 °C. In addition, the inhibition constant Ki on hCA IX was determined as 28.6 nM. In addition, the inhibition constant (Ki) on hCA II (setting [1]) came out at 7.7 nM. Besides, on hCA I, the Ki came to 5680 nM. The Ki at hCA XII came out at 78.3 nM.

`O=S1(=O)N=Cc2ccc(-c3ccc(F)cc3)cc2O1` [5g, 7-(4-Fluorophenyl)-1,2,3-benzoxathiazine 2,2-dioxide]: the melting point was 164 to 165 °C. Also, the Ki on hCA IX was determined as 69.8 nM. The Ki at hCA II (setting [1]) is 2.1 nM. Besides, the Ki at hCA I turned out to be 15200 nM. Further, the inhibition constant (Ki) on hCA XII was 8.2 nM.

For the compound `COc1ccc(-c2ccc3c(c2)OS(=O)(=O)N=C3)cc1` [5h, 7-(4-Methoxyphenyl)-1,2,3-benzoxathiazine 2,2-dioxide], the melting point was in the range of 181 to 182 °C. The Ki on hCA IX is 45.2 nM. Further, at hCA II (setting [1]), the Ki was determined as 14.3 nM. Besides, the inhibition constant Ki on hCA I was 30300 nM. The Ki on hCA XII amounted to 36.4 nM.

In the case of `CCOC(=O)c1ccc(-c2ccc3c(c2)OS(=O)(=O)N=C3)cc1` [5i, Ethyl 4-(2,2-dioxido-1,2,3-benzoxathiazin-7-yl)benzoate], the melting point lay within 204 to 205 °C. Further, the Ki at hCA IX was 38 nM. Further, the Ki at hCA II (setting [1]) came out at 0.8 nM. In addition, the Ki on hCA I worked out at 356 nM. Besides, the Ki at hCA XII came out at 90.5 nM.

In the case of `O=S1(=O)N=Cc2cccc(-c3ccccc3)c2O1` [5j, 8-Phenyl-1,2,3-benzoxathiazine 2,2-dioxide], the melting point was 164 to 165 °C. Moreover, the Ki on hCA IX amounted to 49.1 nM. Also, on hCA II (setting [1]), the inhibitory constant (Ki) was 0.5 nM. At hCA I, the Ki was 668 nM. Moreover, the Ki at hCA XII was determined as 61.8 nM.

`O=S1(=O)N=Cc2cccc(-c3ccc(F)cc3)c2O1` [5k, 8-(4-Fluorophenyl)-1,2,3-benzoxathiazine 2,2-dioxide] came in with a melting point of 123 to 124 °C. The Ki on hCA IX worked out at 32.3 nM. For the same compound, the Ki on hCA II (setting [1]) turned out to be 5.6 nM. Further, the inhibitory constant (Ki) on hCA I stood at 1850 nM. Further, at hCA XII, the Ki amounted to 12.4 nM.

On to `COc1ccc(-c2cccc3c2OS(=O)(=O)N=C3)cc1` [5l, 8-(4-Methoxyphenyl)-1,2,3-benzoxathiazine 2,2-dioxide], for which the melting point lay in the range of 133 to 134 °C. In addition, on hCA IX, the Ki was 62.7 nM. Besides, the Ki at hCA II (setting [1]) came to 12.3 nM. Further, the Ki on hCA I was 4260 nM. Further, at hCA XII, the Ki stood at 7.3 nM.

In the case of `O=S1(=O)N=Cc2cccc(-c3ccc(Cl)c(Cl)c3)c2O1` [5m, 8-(3,4-Dichlorophenyl)-1,2,3-benzoxathiazine 2,2-dioxide], the melting point was in the range of 165 to 166 °C. The Ki at hCA IX is 40.8 nM. The Ki at hCA II (setting [1]) came out at 9.5 nM. The Ki at hCA I came out at 6710 nM. Moreover, the Ki at hCA XII stood at 4.8 nM.

Values taken from paper PMC9673787, “1,2,3-Benzoxathiazine-2,2-dioxides – effective inhibitors of human carbonic anhydrases” (Journal of Enzyme Inhibition and Medicinal Chemistry, 2022).
